# Structures can show the parent of a compound that is named as a salt. Where two headings read alike, the source gives them in different places.
# Tests used:
# [1] = Component compatibility with stabilized chlorine dioxide preservative; type: physicochemical
# Description: A composition including betaine and stabilized chlorine dioxide, as a preservative, was tested for component compatibility. […] Thus, betaine is not useful with certain preservatives, such as stabilized chlorine dioxide. However, betaine may advantageously be employed as a compatible solute in ophthalmic compositions which use other preservative systems, or which are free of preservatives, for example, in single or unit-dose applications.
# corneal epithelial cells = experiment: Trans-epithelial electrical resistance (TEER) of layered air-lift corneal epithelial cultures exposed to hypertonic fluid; type: cell-based, rabbit; details: for Osmoprotective benefit on TEER relative to hypertonic control, in words: 2 mM, 400 mOsmols/kg, 22 hours; for Concentration dependent effect on % TEER relative to the isotonic control: different concentrations, TEER measured 0 to 24 hours, FIG. 6
# Source text: In this experiment, corneal epithelial cells were isolated from the rabbit eye and grown under conditions so that they differentiate into a layered “air-lift” culture that includes basal, wing, and squamous cells. As they grow and differentiate, these cultures developed tight junctions between cells that provide the basis for a trans-epithelial electrical resistance (TEER) across the cell layers between the apical and basal surfaces. The TEER value is a sensitive measure of cell growth, differentiation and health.
# After 5 days in culture during which the layered structure forms, different culture wells were exposed to hypertonic fluid (400 mOsmols/kg) with or without addition of one of 6 candidate compatible solutes at a low concentration (2 mM). The TEER was then measured after 22 hours of exposure. The TEER value was expressed as a percentage of the TEER value obtained from a similar culture under isotonic (300 mOsmol/kg) conditions.
# Example 1 is repeated except that different concentrations of each of the candidate materials are used, and the TEER is measured at various times from 0 to 24 hours.
# As in Example 1, the TEER variable is represented as % TEER relative to the isotonic control.
# Example 4 was repeated except that compositions including combinations of compatible solutes were used. Compositions including only glycerol as a compatible solute were also tested.
# JNK = experiment: Beadlyte Cell Signaling Assay, phosphorylated:total JNK; type: cell-based, human; details: 2 mM, Beadlyte method, FIG. 3
# Description: (§1) A series of primary sub-confluent corneal epithelial cultures (grown for 12 to 14 days, about 4−5×10^5 cells/well) were washed three times with […] buffered saline (PBS) and switched to an Earle's Balanced Salt Solution (EBSS, 300 mOsmols/kg) for 24 hours before treatment. The corneal epithelial cells were cultured for 1 hour in an equal volume (2.0 mL/well) of EBSS media or 400 mOsmols/kg media by adding 53 mM NaCl or sucrose, with either L-carnitine inner salt, betaine hydrochloride, erythritol, or xylitol (all at a concentration of 2 mM) that were pre-added 60 minutes before adding NaCl or sucrose. Samples without these osmoprotectants were also prepared and tested.
# (§2) The adherent cells were lysed in Beadlyte® Buffer B (included in the Beadlyte® Cell Signaling buffer kit, Upstate Biotechnology, Lake Placid, N.Y.) containing an EDTA-free protease inhibitor cocktail tablet (Roche Applied Science, Indianapolis, Ind.) for 15 minutes. The cell extracts were centrifuged at 12,000×g for 15 minutes at room temperature and the supernatants were stored at −80° C. until they were analyzed by Western blot analysis. The total protein concentrations of the cell extracts were determined using a Micro BCA protein assay kit (Pierce, Rockford, Ill.).
# In another series of experiments, the Beadlyte® Cell Signaling Assay was used. This assay is a fluorescent bead-based sandwich immunoassay. Each sample (10 μg/25 μL) was pipetted into a well of a 96-well plate and incubated with 25 μL of diluted 5× beads coupled to phospho-JNK, phospho-ERK, phospho-p38 or total JNK, or total ERK, or total p38 specific capture antibodies overnight. […]
# The beads were washed and mixed with biotinylated specific reporter antibodies for phospho-MAPK or total-MAPK, followed by streptavidin-phycoerythrin. The amount of total or phospho-MAPK was then quantified by the Luminex 100™ system (Luminex, Austin, Tex.). Fifty events per bead were read, and the data output obtained from the Bio-Plex Manager software were exported to Microsoft Excel® for further analysis. […]
# ERK MAP Kinase = experiment: Beadlyte Cell Signaling Assay, phospho:total ERK MAP kinase; type: cell-based, human; details: 2 mM, Beadlyte method, FIG. 5
# Description: as §1, §2
# In another series of experiments, the Beadlyte® Cell Signaling Assay was used. This assay is a fluorescent bead-based sandwich immunoassay. […]
# [2] = system: phosphorylated c-jun N-terminal kinases (p-JNK1 and p-JNK2); experiment: Western blot of phosphorylated JNK1 and JNK2 in primary corneal epithelial cultures under hyperosmolar stress; type: cell-based, human; details: 2 mM
Compound,Compatibility with stabilized chlorine dioxide (Purite) preservative in a composition [1],Compatibility with stabilized chlorine dioxide (Purite) preservative in a composition ([1]; listed as betaine),"Osmoprotective benefit on TEER relative to hypertonic control, in words (corneal epithelial cells)",Amount of phospho-total JNK relative to the hypertonic control (JNK),Amount of ERK (phospho:total) relative to the hypertonic control (ERK MAP Kinase),Concentration dependent effect on % TEER relative to the isotonic control (corneal epithelial cells),Levels of p-JNK1 and p-JNK2 (Western blot) in 300 mOsmols/kg cultures ([2]; 300 mOsmols/kg EBSS media),"JNK activation (levels of p-JNK1 and p-JNK2, Western blot intensity) compared to 400 mOsmols/kg media alone ([2]; pre-added 60 minutes, 1 hour in 400 mOsmols/kg media)"
"C[N+](C)(C)CC(=O)O [Betaine, trimethyl glycine]",incompatible,not fully compatible,–,–,–,–,–,–
O[C@H]1[C@H](O)[C@@H](O)[C@H](O)[C@@H](O)[C@H]1O [Myo-Inositol],–,–,good results,–,–,–,–,–
OC[C@@H](O)[C@H](O)[C@@H](O)CO [Xylitol],–,–,good results,reduced,reduced,–,–,–
OC[C@@H](O)[C@@H](O)CO [Erythritol],–,–,best results among the polyols tested,reduced,reduced,dose-related response,–,–
"C[N+](C)(C)C[C@H](O)CC(=O)[O-] [Carnitine, L-carnitine inner salt]",–,–,produced the most benefit,reduced,–,dose-related response,less robust effect,definite decrease
